Values quoted from earlier work, collected in US20200281134A1, “GROWTH SUBSTRATE PRODUCT” (ROCKWOOL International A/S, priority 2015, published 2020).

Settings: 3-hydroxy group

pKa: 4.04
SMILES: O=C1O[C@H]([C@@H](O)CO)C(O)=C1O [ascorbic acid, Ascorbic acid]
